From patent EP3255116A1, “COMPOSITIONS COMPRISING A FLUOROOLEFIN” (The Chemours Company FC, LLC, priority 2005, dated 2006)

Tests used:
[1] = Kinematic viscosity of lactone compatibilizers; format: physicochemical; conditions: at 40°C
Procedure: Lactone compatibilizers generally have a kinematic viscosity of less than about 7 centistokes at 40°C. […] Lactone compatibilizers may be available commercially or prepared by methods as described in U. S. patent application 10/910,495 filed August 3, 2004, incorporated herein by reference.

[2] = Flammability test ASTM E681-01, lower and upper flammability limit in air (Example 6); format: physicochemical; conditions: 50 percent relative humidity; for LFL: lower flammability limit; for LFL / UFL: ASTM E681-01, 101 kPa (14.7 psia), 100 °C (212 °F); for UFL: upper flammability limit; for flammability: ASTM E681-01, 101 kPa, 100 °C
Procedure: Flammable compounds may be identified by testing under ASTM (American Society of Testing and Materials) E681-01, with an electronic ignition source. Such tests of flammability were conducted on HFC-1234yf, HFC-1225ye and a mixture of the present disclosure at 101 (kPa (14.7 psia), 100 °C (212 °F), and 50 percent relative humidity, at various concentrations in air in order to determine the lower flammability limit (LFL) and upper flammability limit (UFL). The results are given in […]. TABLE 14

Structure (SMILES)	kinematic viscosity [1]	LFL [2]	UFL [2]	flammability [2]
CCCCCC[C@H]1C[C@@H](C)OC1=O (relative stereo) [cis-(3-hexyl-5-methyl)dihydrofuran-2-one]	4.5 centistokes	–	–	–
FC=C(F)C(F)(F)F [HFC-1225ye (100wt%)]	–	Non-flammable	Non-flammable	–
FC=C(F)C(F)(F)F [HFC-1225ye, 1,2,3,3,3-pentafluoropropene]	–	–	–	reduces the flammability
C=C(F)C(F)(F)F [HFC-1234yf (100 wt%)]	–	5.0 vol % in air	14.5 vol % in air	–
C=C(F)C(F)(F)F [HFC-1234yf, 2,3,3;3-tetrafluoropropene]	–	–	–	flammable
